Each structure is given as a SMILES string.

Our source for the IC50 values is patent US12060347B2 (BRISTOL-MYERS SQUIBB COMPANY, priority 2016, dated 2024).

The target in the assay is T1, human PAR4 (Homo sapiens, UniProt Q96RI0).
T1 construct: expressed in transfected cells; host or cells: HEK293 PAR4 Clone 1.2A (BMS Arctic ID 383940)
T1 sequence (Q96RI0 18-385): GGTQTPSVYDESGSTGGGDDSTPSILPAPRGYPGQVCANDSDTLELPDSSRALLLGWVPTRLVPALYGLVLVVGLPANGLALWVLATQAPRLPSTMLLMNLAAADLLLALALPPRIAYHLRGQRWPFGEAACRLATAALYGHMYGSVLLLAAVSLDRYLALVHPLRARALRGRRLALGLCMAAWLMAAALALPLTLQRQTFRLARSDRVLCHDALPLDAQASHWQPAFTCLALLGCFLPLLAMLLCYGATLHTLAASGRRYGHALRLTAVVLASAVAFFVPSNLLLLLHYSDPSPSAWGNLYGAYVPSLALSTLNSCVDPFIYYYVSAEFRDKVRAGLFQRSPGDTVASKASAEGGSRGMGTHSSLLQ
The experiment in a line: PAR4 FLIPR assay: antagonism of agonist-peptide-induced calcium mobilization in PAR4-expressing HEK293 cells. Type of assay: cell-based. The settings on record: H-Ala-Phe(4-F)-[…]NH2-induced intracellular calcium mobilization, 11-point curves.

`Cc1cc(-c2nc3cccc(OCc4cscn4)c3s2)c2ncc(OC(F)F)nc2c1` [Example 15, 2-(2-(difluoromethoxy)-7-methylquinoxalin-5-yl)-7-(thiazol-4-ylmethoxy)benzo[d]thiazole]: the IC50 was found to be 38 nM. The value for `Cc1cc(-c2nc3ccc(OCCNC(=O)OC4CCOC4)cc3s2)c2ncc(OC(F)F)nc2c1` (stereo not drawn) [Example 16, tetrahydrofuran-3-yl (2-((2-(2-(difluoromethoxy)-7-methylquinoxalin-5-yl)benzo[d]thiazol-6-yl)oxy)ethyl)carbamate] was 80 nM; that for `Cc1cc(-c2nc3cccc(OCCOc4ccccc4)c3s2)c2ncc(OC(F)F)nc2c1` [Example 17, 2-(2-(difluoromethoxy)-7-methylquinoxalin-5-yl)-7-(2-phenoxyethoxy)benzo[d]thiazole] was 13 nM; that for `Cc1cc(-c2nc3cccc(OCCOCc4ccccc4)c3s2)c2ncc(OC(F)F)nc2c1` [Example 18, 7-(2-(benzyloxy)ethoxy)-2-(2-(difluoromethoxy)-7-methylquinoxalin-5-yl) benzo[d]thiazole] was 98 nM. Then `Cc1cc(-c2nc3ccc(OCCNC(=O)OCC4CCCO4)cc3s2)c2ncc(OC(F)F)nc2c1` (stereo not drawn) [Example 19, (Tetrahydrofuran-2-yl)methyl (2-((2-(2-(difluoromethoxy)-7-methylquinoxalin-5-yl)benzo[d]thiazol-6-yl)oxy)ethyl)carbamate], with 41 nM. Then `Cc1cc(-c2nc3ccc(OCCNC(=O)OC4CCOCC4)cc3s2)c2ncc(OC(F)F)nc2c1` [Example 20, tetrahydro-2H-pyran-4-yl (2-((2-(2-(difluoromethoxy)-7-methylquinoxalin-5-yl)benzo[d]thiazol-6-yl)oxy)ethyl)carbamate], with 30 nM; and `Cc1cc(-c2nc3cccc(NC(=O)OC4CCOCC4)c3s2)c2ncc(OC(F)F)nc2c1` [Example 21, tetrahydro-2H-pyran-4-yl (2-(2-(difluoromethoxy)-7-methylquinoxalin-5-yl)benzo[d]thiazol-7-yl)carbamate], with 3.3 nM. As for `Cc1cc(-c2nc3cccc(NC(=O)OCC4CCCO4)c3s2)c2ncc(OC(F)F)nc2c1` (stereo not drawn) [Example 22, (Tetrahydrofuran-2-yl)methyl (2-(2-(difluoromethoxy)-7-methylquinoxalin-5-yl)benzo[d]thiazol-7-yl)carbamate], the half-maximal inhibitory concentration (IC50) stood at 1.8 nM. `COc1ccc2nc(-c3cc(C)cc4nc(OC(F)F)cnc34)sc2n1` [Example 23, 2-(2-(difluoromethoxy)-7-methylquinoxalin-5-yl)-5-methoxythiazolo[5,4-b]pyridine]: the IC50 was determined as 5.3 nM. Regarding `COc1cncc2nc(-c3cc(C)cc4nc(OC(F)F)cnc34)sc12` [Example 24, 2-(2-(difluoromethoxy)-7-methylquinoxalin-5-yl)-7-methoxythiazolo[4,5-c]pyridine], the IC50 was 2 nM. Regarding `Cc1cc(-c2cc3c(o2)CCCC3NC(=O)OC(C)(C)C)c2ncc(OC(F)F)nc2c1` (stereo not drawn) [Example 25, tert-butyl (2-(2-(difluoromethoxy)-7-methylquinoxalin-5-yl)-4,5,6,7-tetrahydrobenzofuran-4-yl)carbamate], the 50% inhibitory concentration (IC50) is 130 nM. Take `COc1cnc2c(-c3nc4c(C)cc(OCCNS(=O)(=O)c5ccc(F)cc5)cc4s3)cc(C)cc2n1` [Example 26, 4-fluoro-N-(2-((2-(2-methoxy-7-methylquinoxalin-5-yl)-4-methylbenzo[d]thiazol-6-yl)oxy)ethyl)benzenesulfonamide]: the IC50 is 3.3 nM. The value for `COc1cnc2c(-c3nc4c(Cl)cc(OCCNS(=O)(=O)c5ccccc5)cc4s3)cc(C)cc2n1` [Example 27, N-(2-((4-chloro-2-(2-methoxy-7-methylquinoxalin-5-yl)benzo[d]thiazol-6-yl)oxy)ethyl)benzenesulfonamide] was 5.4 nM; that for `COc1cnc2c(-c3nc4c(Cl)cc(OCCNS(=O)(=O)c5ccc(F)cc5)cc4s3)cc(C)cc2n1` [Example 28, N-(2-((4-chloro-2-(2-methoxy-7-methylquinoxalin-5-yl)benzo[d]thiazol-6-yl)oxy)ethyl)-4-fluorobenzenesulfonamide] was 3 nM; that for `COCc1cnc2c(-c3nc4c(C)cc(OCCNS(=O)(=O)c5ccc(F)cc5)cc4s3)cc(C)cc2n1` [Example 29, 4-fluoro-N-(2-((2-(2-(methoxymethyl)-7-methylquinoxalin-5-yl)-4-methylbenzo[d]thiazol-6-yl)oxy)ethyl)benzenesulfonamide] was 1.4 nM.

Consider `CCOc1cnc2c(-c3nc4c(C)cc(OCCNS(=O)(=O)c5ccc(F)cc5)cc4s3)cc(C)cc2n1` [Example 30, N-(2-((2-(2-ethoxy-7-methylquinoxalin-5-yl)-4-methylbenzo[d]thiazol-6-yl)oxy)ethyl)-4-fluorobenzenesulfonamide], for which the IC50 turned out to be 4.7 nM. The value for `CCc1cnc2c(-c3nc4c(C)cc(OCCNS(=O)(=O)c5ccc(F)cc5)cc4s3)cc(C)cc2n1` [Example 31, N-(2-((2-(2-ethyl-7-methylquinoxalin-5-yl)-4-methylbenzo[d]thiazol-6-yl)oxy)ethyl)-4-fluorobenzenesulfonamide] was 240 nM. Then `COC(=O)c1cnc2c(-c3nc4c(C)cc(OCCNS(=O)(=O)c5ccc(F)cc5)cc4s3)cc(C)cc2n1` [Example 32, methyl 5-(6-(2-(4-fluorophenylsulfonamido)ethoxy)-4-methylbenzo[d]thiazol-2-yl)-7-methylquinoxaline-2-carboxylate], with 3 nM; and `Cc1cc(-c2nc3c(C)cc(OCCNS(=O)(=O)c4ccc(F)cc4)cc3s2)c2ncc(OC3CC3)nc2c1` [Example 33, N-(2-((2-(2-cyclopropoxy-7-methylquinoxalin-5-yl)-4-methylbenzo[d]thiazol-6-yl)oxy)ethyl)-4-fluorobenzenesulfonamide], with 120 nM; and `Cc1cc(-c2nc3c(C)cc(OCCNS(=O)(=O)c4ccc(F)cc4)cc3s2)c2ncc(OCF)nc2c1` [Example 34, 4-fluoro-N-(2-((2-(2-(fluoromethoxy)-7-methylquinoxalin-5-yl)-4-methylbenzo[d]thiazol-6-yl)oxy)ethyl)benzenesulfonamide], with 1.6 nM. The value for `COc1cnc2c(-c3nc4c(C)cc(OCc5cnc(-c6ccccc6)[nH]5)cc4s3)cc(C)cc2n1` [Example 35, 2-(2-methoxy-7-methylquinoxalin-5-yl)-4-methyl-6-((2-phenyl-1H-imidazol-5-yl)methoxy)benzo[d]thiazole] was 54 nM. Regarding `COc1cnc2c(-c3nc4c(C)cc(OCC(=O)NCc5ccccc5)cc4s3)cc(C)cc2n1` [Example 36, N-benzyl-2-((2-(2-methoxy-7-methylquinoxalin-5-yl)-4-methylbenzo[d]thiazol-6-yl)oxy)acetamide], the concentration for half-maximal inhibition (IC50) was found to be 7.7 nM. The value for `COc1cnc2c(-c3cc4cccc(Cl)c4o3)cc(C)cc2n1` [Example 37, 5-(7-chlorobenzofuran-2-yl)-2-methoxy-7-methylquinoxaline] was 22 nM; that for `COc1cnc2c(-c3cc4cc(OCCOC(=O)Nc5ccnc(C)c5)cc(Cl)c4o3)cc(C)cc2n1` [Example 38, 2-((7-chloro-2-(2-methoxy-7-methylquinoxalin-5-yl)benzofuran-5-yl)oxy)ethyl (2-methylpyridin-4-yl)carbamate] was 2.1 nM; that for `COc1cnc2c(-c3cc4cc(OCCNS(=O)(=O)c5ccccc5)cc(Cl)c4o3)cc(C)cc2n1` [Example 39, N-(2-((7-chloro-2-(2-methoxy-7-methylquinoxalin-5-yl)benzofuran-5-yl)oxy)ethyl)benzenesulfonamide] was 10 nM. The value for `Cc1cc(-c2cc3ccccc3s2)c2ncc(OC(F)F)nc2c1` [Example 40, 5-(benzo[b]thiophen-2-yl)-2-(difluoromethoxy)-7-methylquinoxaline] was 36 nM. In the case of `COc1cccc2cc(-c3cc(C)cc4nc(OC(F)F)cnc34)oc12` [Example 41, 2-(difluoromethoxy)-5-(7-methoxybenzofuran-2-yl)-7-methylquinoxaline], the IC50 was determined as 400 nM.

Regarding `COc1cccc2oc(-c3cc(C)cc4nc(OC(F)F)cnc34)cc12` [Example 42, 2-(difluoromethoxy)-5-(4-methoxybenzofuran-2-yl)-7-methylquinoxaline], the IC50 turned out to be 5.2 nM. Then `COc1cnc2c(-c3cc4c(OCc5ccccc5)cccc4o3)cc(C)cc2n1` [Example 43, 5-(4-(benzyloxy)benzofuran-2-yl)-2-methoxy-7-methylquinoxaline], with 170 nM. The value for `Cc1cc(-c2cc3cc(OCc4ccccc4)ccc3o2)c2ncc(OC(F)F)nc2c1` [Example 44, 5-(5-(benzyloxy)benzofuran-2-yl)-2-(difluoromethoxy)-7-methylquinoxaline] was 220 nM. Then `Cc1cc(-c2cn3ccccc3n2)c2ncc(OC(F)F)nc2c1` [Example 45, 2-(difluoromethoxy)-5-(imidazo[1,2-a]pyridin-2-yl)-7-methylquinoxaline], with 99 nM; and `COC(=O)NCCOc1ccc2oc(-c3cc(C)cc4nc(OC(F)F)cnc34)cc2c1` [Example 46, methyl 2-(2-(2-(difluoromethoxy)-7-methylquinoxalin-5-yl)benzofuran-5-yloxy)ethylcarbamate], with 17 nM; and `Cc1cc(-c2nc3ccccc3[nH]2)c2ncc(OC(F)F)nc2c1` [Example 47, 5-(1H-benzo[d]imidazol-2-yl)-2-(difluoromethoxy)-7-methylquinoxaline], with 34 nM.
